Measurements as given in patent US7108865B2, “Controlled-release dosage forms of azithromycin” (Pfizer Inc, priority 1994, dated 2006).

Assay: Serum azithromycin pharmacokinetics after 2 hr intravenous infusion (Example 3)
Format: in vivo
Conditions: male, human, 2 hr infusion
Protocol: Healthy male subjects were divided into four groups. Group A received a 2 hr intravenous infusion of a placebo solution (0 g azithromycin). Group B received a 2 hr intravenous infusion of a 1 g dose of azithromycin. Group C received a 2 hr intravenous infusion of a 2 g dose of azithromycin. Group D received a 2 hr intravenous infusion of a 4 g dose of azithromycin. […] All subjects were dosed after an overnight fast.
Tmax is the time at which Cmax is achieved.

## CC[C@H]1OC(=O)[C@H](C)[C@@H](O[C@H]2C[C@@](C)(OC)[C@@H](O)[C@H](C)O2)[C@H](C)[C@@H](O[C@@H]2O[C@H](C)C[C@H](N(C)C)[C@H]2O)[C@](C)(O)C[C@@H](C)CN(C)[C@H](C)[C@@H](O)[C@]1(C)O [azithromycin, 9a-aza-9a-methyl-9-deoxo-9a-homoerythromycin A]
1.0 g total IV dose, n = 6
  AUC(0-inf): 23400 ng·h/mL
  Cmax: 3110 ng/mL
  Tmax: 1.9 h
2.0 g total IV dose, n = 6
  AUC(0-inf): 45600 ng·h/mL
  Cmax: 6840 ng/mL
  Tmax: 1.8 h
4.0 g total IV dose, n = 5
  AUC(0-inf): 82100 ng·h/mL
  Cmax: 9910 ng/mL
  Tmax: 1.1 h
